{"source": "paper PMC4833932", "about": "“Cytotoxicity and cell cycle arrest induced by andrographolide lead to programmed cell death of MDA-MB-231 breast cancer cell line” (Journal of Biomedical Science, 2016)", "type_in_all_cases": "cell-based, human", "key": {"[1]": {"test_system": "MDA-MB-231", "test": "In vitro cytotoxicity (MTT) assay", "description": "The effect of andrographolide on cell viability was measured by MTT assay following the method by Mosmann. Briefly, the cells (1 × 10^5 cells per ml) were seeded in a 96 well micro titer plate (100 μl per well) with replications. Treatment was conducted for 24 and 48 h with different concentrations (0, 5, 7.5, 15, 30, 45, 60, 75 and 100 μM) of andrographolide. After incubation, 20 μl of 5 mg/ml MTT stock solution was added to each well and incubated for 4 h at 37 °C. The obtained formazan crystals were solubilized with DMSO and the absorbance was measured at 570 nm using a microplate reader (SpectraMax M5, Molecular Devices, USA). Cell viability (%) has been shown as a ratio of absorbance (A570) in treated cells to absorbance in control cells (0.1 % DMSO) (A570). The IC50 was calculated as the concentration of sample needed to reduce 50 % of the absorbance in comparison to the DMSO-treated control. Percent cell viability was calculated following the equation: Cellviability%=A570Sample/A570ControlDMSO×100"}, "[2]": {"test_system": "MDA-MB-231 cells", "test": "Cell proliferation assay (trypan blue)", "settings": "30 μM, 48 h", "description": "MDA-MB-231 cells harvested from exponential growth phase were seeded at a density of 1 × 10^4/well in a 24-well culture plate. After 24 h, the cells were treated with varying concentrations of andrographolide (15, 30, 45 and 60 μM) or DMSO (0.1 %, vehicle control) for 12, 24, 36 and 48 h. After treatment, cells were harvested by trypsinization, stained with 0.4 % trypan blue and counted in a hemocytometer. Cell proliferation index PI, was calculated as PI = Ct/C0; where Ct = cell count at time t and C0 = cell count at the time of treatment."}, "[3]": {"test_system": "MCF-7 cells", "test": "Annexin V-FITC/PI flow cytometry (apoptosis)", "settings": "MCF-7, IC50 concentration, 48 h", "description": "(§1) In order to examine phosphatidyl serine externalization from inner to the outer cell membrane, a characteristic feature of apoptotic cell death and to quantify the percentage of apoptotic cell death, cultured MDA-MB-231 cells (1 × 10^6) were treated with 50 % inhibitory concentration (30 μM) of andrographolide for 24 h, 36 h and 48 h. Cells were resuspended in 1X binding buffer, labelled with fluorescein isothiocyanate (FITC)-conjugated Annexin V (200 μg/ml) and PI (30 μg/ml), incubated for 15 min at room temperature in the dark and analyzed by flow cytometry using BD FACSVerse™ (Becton Dickinson, USA). Data were analyzed using FACSuite™ software. For each set, total of 10,000 events were recorded. Similar experiment was also performed using MCF-7 cells treated with andrographolide for 48 h."}, "[4]": {"test_system": "MDA-MB-231 cells", "test": "Annexin V-FITC/PI flow cytometry (apoptosis)", "settings": "30 μM", "description": "as §1"}, "[5]": {"test_system": "MDA-MB-231", "test": "Cellular ROS level (DCF-DA)", "settings": "15, 30, 45 and 60 μM, 12-48 h", "description": "To estimate intracellular ROS level, MDA-MB-231 (2 × 10^4 cells per well) were treated with andrographolide (15, 30, 45 and 60 μM) for 12–48 h and were harvested by centrifugation for the assay. The cell suspension (200 μl, containing 1 × 10^5 cells per ml) was mixed to PBS (800 μl) and 10 μM 2ʹ, 7ʹ-dichlorofluorescein diacetate (DCF-DA) and kept at 37 °C for 30 min in the dark. 25 μM H2O2 was used for positive control. The intracellular ROS level was measured by determining the production of H2O2 using a spectrofluorometer (excitation, 488 nm; emission, 515 nm). Another set of experiment was similarly performed where MDA-MB-231 cells were pre-treated with 3 mM NAC for 1 h followed by without or with andrographolide (30 μM) treatment. Same experiment was also performed using MCF-7 cells."}, "[6]": {"test_system": "caspase-3", "test": "Caspase activity assay (fluorometric, DEVD-AFC) in MDA-MB-231 cells", "settings": "0-60 μM, 24 h", "description": "(§2) MDA-MB-231 cells (1 × 10^5 cells per ml) were incubated with different concentrations of andrographolide (0, 15, 30, 45 and 60 μM) for 24 h and then centrifuged to detect caspase-3 and caspase-9 activation using caspase fluoremetric protease assay kit following manufacturer’s instructions. Briefly, cells were lysed in RIPA buffer supplemented with protease inhibitor cocktail and 10 μl lysate were diluted with 10 μl substrate buffer (1:1) containing 100 μM each of fluorogenic substrate, DEVD-AFC and LEHD-AFC for caspase-3 and caspase-9 respectively, and was then incubated for 90 min at 37 °C. Reactions were stopped using 0.2 mM sodium phosphate buffer (pH 7.5) and fluorescence was quantified by a spectrofluorometer (excitation, 405 nm; emission, 505 nm). Experiment was also performed using MCF-7 cells."}, "[7]": {"test_system": "caspase-9", "test": "Caspase activity assay in MCF-7 cells", "settings": "MCF-7, 0-80 μM, 24 h", "description": "as §2"}, "[8]": {"test_system": "caspase-7", "test": "Caspase activity assay in MCF-7 cells", "settings": "MCF-7, 0-80 μM, 24 h"}}, "note": "Several values for one entry are separate records, joined by “and”; a condition that tells them apart may be missing. Identical values can stand only once."}
{"compound": "C=C1CC[C@@H]2[C@](C)(CO)[C@H](O)CC[C@@]2(C)[C@@H]1C/C=C1/C(=O)OC[C@H]1O", "note": "[andrographolide]", "values": [{"measurement": "IC50", "setting": "[1]; Homo sapiens, MDA-MB-231, 24 h", "value": 52, "unit": "µM"}, {"measurement": "IC50", "setting": "[1]; Homo sapiens, MDA-MB-231, 48 h", "value": 30, "unit": "µM"}, {"measurement": "IC50", "setting": "[1]; MDA-MB-231, 48 h", "value": 30.3, "unit": "µM"}, {"measurement": "cell death", "setting": "[2]", "value": "~ 50%"}, {"measurement": "percentage of apoptotic cells", "setting": "[3]", "value": 41.17, "unit": "%"}, {"measurement": "early apoptotic cells (annexin V+ and PI-)", "setting": "[4]; 24 h", "value": "16.76 ± 0.51", "unit": "%"}, {"measurement": "late apoptotic cells (annexin V+ and PI+)", "setting": "[4]; 24 h", "value": "32.2 ± 2.2% and 32%"}, {"measurement": "early apoptotic cells (annexin V+ and PI-)", "setting": "[4]; 36 h", "value": "12.23 ± 0.29", "unit": "%"}, {"measurement": "late apoptotic cells (annexin V+ and PI+)", "setting": "[4]; 36 h", "value": "60.06 ± 0.6", "unit": "%"}, {"measurement": "early apoptotic cells (annexin V+ and PI-)", "setting": "[4]; 48 h", "value": "5.89 ± 0.67", "unit": "%"}, {"measurement": "cell population in necrotic phase", "setting": "[4]; all the treated conditions (24, 36, 48 h)", "value": "< 1", "unit": "%"}, {"measurement": "ROS generation (DCF fluorescence)", "setting": "[5]", "value": "increasing ROS generation with longer exposure and elevated dose"}, {"measurement": "activation of caspase-3", "setting": "[6]", "value": "gradual dose-dependent activation"}, {"measurement": "caspase-9 (initiator caspase) activation", "setting": "[7]", "value": "activation in a dose-dependent manner"}, {"measurement": "caspase-7 (effector caspase) activation", "setting": "[8]", "value": "activation in a dose-dependent manner"}]}
